Laboratory results taken from patent publication US20070049564A1 (Wyeth, priority 2005, published 2007).
≈ marks a conversion by molar mass, not a printed value. Like-named read-outs stand apart in the source and are kept apart here.

Legend:
Assay in all cases: MIC, broth microdilution
E. coli GC 2272 = details: Escherichia coli
c. albicans GC 3066 = details: for MIC: Candida albicans, GC3066, read-out: MINIMAL INHIBITORY CONCENTRATION MIC; for MINIMAL INHIBITORY CONCENTRATION MIC: pre-incubated in Water
S. aureus GC 1079 = details: Staphylococcus aureus
S. aureus GC 6469 = details: Staphylococcus aureus
S. aureus GC 6467 = details: Staphylococcus aureus
S. epidermidis GC 4935 = details: Staphylococcus epidermidis
S. aureus GC 1131 = details: Staphylococcus aureus
E. coli GC 1073 = details: Escherichia coli
E. coli GC 2271 = details: Escherichia coli
E. coli GC 3226 = details: Escherichia coli
E. coli GC 4560 = details: Escherichia coli
S. aureus GC 6335 = details: Staphylococcus aureus
E. coli GC 2270 = details: Escherichia coli
E. coli GC 2233 = details: Escherichia coli
P. aeruginosa GC 2214 = details: Pseudomonas aeruginosa
E. faecium GC 2243 = details: Enterococcus faecium
E. faecalis GC 2267 = details: Enterococcus faecalis
E. faecalis GC 2265 = details: Enterococcus faecalis
E. coli GC 2203 = details: Escherichia coli
E. coli GC 6465 = details: Escherichia coli
[1] = GC2272, read-out: MINIMAL INHIBITORY CONCENTRATION MIC, pre-incubated in Mouse Serum
[2] = GC2272, read-out: MINIMAL INHIBITORY CONCENTRATION MIC, pre-incubated in Water
[3] = GC1079, read-out: MINIMAL INHIBITORY CONCENTRATION MIC, pre-incubated in Mouse Serum
[4] = GC1079, read-out: MINIMAL INHIBITORY CONCENTRATION MIC, pre-incubated in Water
[5] = GC6469, read-out: MINIMAL INHIBITORY CONCENTRATION MIC, pre-incubated in Mouse Serum
[6] = GC6469, read-out: MINIMAL INHIBITORY CONCENTRATION MIC, pre-incubated in Water
[7] = GC6467, read-out: MINIMAL INHIBITORY CONCENTRATION MIC, pre-incubated in Mouse Serum
[8] = GC6467, read-out: MINIMAL INHIBITORY CONCENTRATION MIC, pre-incubated in Water
[9] = GC4935, read-out: MINIMAL INHIBITORY CONCENTRATION MIC, pre-incubated in Mouse Serum
[10] = GC4935, read-out: MINIMAL INHIBITORY CONCENTRATION MIC, pre-incubated in Water
[11] = GC1131, read-out: MINIMAL INHIBITORY CONCENTRATION MIC, pre-incubated in Mouse Serum
[12] = GC1131, read-out: MINIMAL INHIBITORY CONCENTRATION MIC, pre-incubated in Water
[13] = GC1073, read-out: MINIMAL INHIBITORY CONCENTRATION MIC, pre-incubated in Mouse Serum
[14] = GC1073, read-out: MINIMAL INHIBITORY CONCENTRATION MIC, pre-incubated in Water
[15] = GC2271, read-out: MINIMAL INHIBITORY CONCENTRATION MIC, pre-incubated in Mouse Serum
[16] = GC2271, read-out: MINIMAL INHIBITORY CONCENTRATION MIC, pre-incubated in Water
[17] = GC3226, read-out: MINIMAL INHIBITORY CONCENTRATION MIC, pre-incubated in Mouse Serum
[18] = GC3226, read-out: MINIMAL INHIBITORY CONCENTRATION MIC, pre-incubated in Water
[19] = GC4560, read-out: MINIMAL INHIBITORY CONCENTRATION MIC, pre-incubated in Mouse Serum
[20] = GC4560, read-out: MINIMAL INHIBITORY CONCENTRATION MIC, pre-incubated in Water
[21] = GC6335, read-out: MINIMAL INHIBITORY CONCENTRATION MIC, pre-incubated in Mouse Serum
[22] = GC6335, read-out: MINIMAL INHIBITORY CONCENTRATION MIC, pre-incubated in Water
[23] = GC2270, read-out: MINIMAL INHIBITORY CONCENTRATION MIC, pre-incubated in Mouse Serum
[24] = GC2270, read-out: MINIMAL INHIBITORY CONCENTRATION MIC, pre-incubated in Water
[25] = GC2233, read-out: MINIMAL INHIBITORY CONCENTRATION MIC, pre-incubated in Mouse Serum
[26] = GC2233, read-out: MINIMAL INHIBITORY CONCENTRATION MIC, pre-incubated in Water
[27] = GC2214, read-out: MINIMAL INHIBITORY CONCENTRATION MIC, pre-incubated in Mouse Serum
[28] = GC2214, read-out: MINIMAL INHIBITORY CONCENTRATION MIC, pre-incubated in Water
[29] = GC2243, read-out: MINIMAL INHIBITORY CONCENTRATION MIC, pre-incubated in Mouse Serum
[30] = GC2243, read-out: MINIMAL INHIBITORY CONCENTRATION MIC, pre-incubated in Water
[31] = GC2267, read-out: MINIMAL INHIBITORY CONCENTRATION MIC, pre-incubated in Mouse Serum
[32] = GC2267, read-out: MINIMAL INHIBITORY CONCENTRATION MIC, pre-incubated in Water
[33] = GC2265, read-out: MINIMAL INHIBITORY CONCENTRATION MIC, pre-incubated in Mouse Serum
[34] = GC2265, read-out: MINIMAL INHIBITORY CONCENTRATION MIC, pre-incubated in Water
[35] = GC2203, read-out: MINIMAL INHIBITORY CONCENTRATION MIC, pre-incubated in Mouse Serum
[36] = GC2203, read-out: MINIMAL INHIBITORY CONCENTRATION MIC, pre-incubated in Water
[37] = GC6465, read-out: MINIMAL INHIBITORY CONCENTRATION MIC, pre-incubated in Mouse Serum
[38] = GC6465, read-out: MINIMAL INHIBITORY CONCENTRATION MIC, pre-incubated in Water

| MIC (E. coli GC 2272; [1]) [µg/mL] | MIC (E. coli GC 2272; [2]) [µg/mL] | MIC (c. albicans GC 3066) [µg/mL] | MINIMAL INHIBITORY CONCENTRATION MIC (c. albicans GC 3066) [UG/ML] | MIC (S. aureus GC 1079; [3]) [µg/mL] | MIC (S. aureus GC 1079; [4]) [µg/mL] | MIC (S. aureus GC 6469; [5]) [µg/mL] | MIC (S. aureus GC 6469; [6]) [µg/mL] | MIC (S. aureus GC 6467; [7]) [µg/mL] | MIC (S. aureus GC 6467; [8]) [µg/mL] | MIC (S. epidermidis GC 4935; [9]) [µg/mL] | MIC (S. epidermidis GC 4935; [10]) [µg/mL] | MIC (S. aureus GC 1131; [11]) [µg/mL] | MIC (S. aureus GC 1131; [12]) [µg/mL] | MIC (E. coli GC 1073; [13]) [µg/mL] | MIC (E. coli GC 1073; [14]) [µg/mL] | MIC (E. coli GC 2271; [15]) [µg/mL] | MIC (E. coli GC 2271; [16]) [µg/mL] | MIC (E. coli GC 3226; [17]) [µg/mL] | MIC (E. coli GC 3226; [18]) [µg/mL] | SMILES | also measured |
| --- | --- | --- | --- | --- | --- | --- | --- | --- | --- | --- | --- | --- | --- | --- | --- | --- | --- | --- | --- | --- | --- |
| 1 (≈ 1.3 µM) | > 64 | > 64 | >64 | 2 (≈ 2.6 µM) | 4 (≈ 5.2 µM) | 4 (≈ 5.2 µM) | 4 (≈ 5.2 µM) | 4 (≈ 5.2 µM) | 8 (≈ 10.4 µM) | 2 (≈ 2.6 µM) | 4 (≈ 5.2 µM) | 1 (≈ 1.3 µM) | 2 (≈ 2.6 µM) | 1 (≈ 1.3 µM) | > 64 | 1 (≈ 1.3 µM) | > 64 | 8 (≈ 10.4 µM) | > 64 | CCCCN(CC(=O)Nc1cc(N(C)C)c2c(c1O)C(=O)C1=C(O)[C@]3(O)C(=O)C(C(N)=O)=C(O)[C@@H](N(C)C)[C@@H]3C[C@@H]1C2)C(=O)OCOC(=O)c1cccs1 [Example 23, ({[(2-{[(5aR,6aS,7S,10aS)-9-(aminocarbonyl)-4,7-bis(dimethylamino)-1,8,10a,11-tetrahydroxy-10,12-dioxo-5,5a,6,6a,7,10,10a,12-octahydrotetracen-2-yl]amino}-2-oxoethyl)(butyl)amino]carbonyl}oxy)methyl thiophene-2-carboxylate] | MIC (E. coli GC 4560; [19]): 0.5 µg/mL (≈ 0.649 µM); MIC (E. coli GC 4560; [20]): 8 µg/mL (≈ 10.4 µM); MIC (S. aureus GC 6335; [21]): 2 µg/mL (≈ 2.6 µM); MIC (S. aureus GC 6335; [22]): 4 µg/mL (≈ 5.2 µM); MIC (E. coli GC 2270; [23]): 1 µg/mL (≈ 1.3 µM); MIC (E. coli GC 2270; [24]): > 64 µg/mL; MIC (E. coli GC 2233; [25]): 2 µg/mL (≈ 2.6 µM); MIC (E. coli GC 2233; [26]): > 64 µg/mL; MIC (P. aeruginosa GC 2214; [27]): > 64 µg/mL; MIC (P. aeruginosa GC 2214; [28]): > 64 µg/mL; MIC (E. faecium GC 2243; [29]): 0.5 µg/mL (≈ 0.649 µM); MIC (E. faecium GC 2243; [30]): 4 µg/mL (≈ 5.2 µM); MIC (E. faecalis GC 2267; [31]): 2 µg/mL (≈ 2.6 µM); MIC (E. faecalis GC 2267; [32]): 8 µg/mL (≈ 10.4 µM); MIC (E. faecalis GC 2265; [33]): 1 µg/mL (≈ 1.3 µM); MIC (E. faecalis GC 2265; [34]): 4 µg/mL (≈ 5.2 µM); MIC (E. coli GC 2203; [35]): 1 µg/mL (≈ 1.3 µM); MIC (E. coli GC 2203; [36]): > 64 µg/mL; MIC (E. coli GC 6465; [37]): 4 µg/mL (≈ 5.2 µM); MIC (E. coli GC 6465; [38]): > 64 µg/mL |
| 1 (≈ 1.19 µM) | > 64 | > 64 | >64 | 4 (≈ 4.76 µM) | > 64 | 4 (≈ 4.76 µM) | > 64 | 4 (≈ 4.76 µM) | > 64 | 2 (≈ 2.38 µM) | 64 (≈ 76.2 µM) | 1 (≈ 1.19 µM) | 64 (≈ 76.2 µM) | 1 (≈ 1.19 µM) | > 64 | 0.5 (≈ 0.595 µM) | > 64 | 8 (≈ 9.52 µM) | > 64 | CCCCN(CC(=O)Nc1cc(N(C)C)c2c(c1O)C(=O)C1=C(O)[C@]3(O)C(=O)C(C(N)=O)=C(O)[C@@H](N(C)C)[C@@H]3C[C@@H]1C2)C(=O)OCOC(=O)c1ccc(-c2ccccc2)cc1 [Example 21, ({[(2-{[(5aR,6aS,7S,10aS)-9-(aminocarbonyl)-4,7-bis(dimethylamino)-1,8,10a,11-tetrahydroxy-10,12-dioxo-5,5a,6,6a,7,10,10a,12-octahydrotetracen-2-yl]amino}-2-oxoethyl)(butyl)amino]carbonyl}oxy)methyl 1,1′-biphenyl-4-carboxylate] | MIC (E. coli GC 4560; [19]): 0.25 µg/mL (≈ 0.298 µM); MIC (E. coli GC 4560; [20]): > 64 µg/mL; MIC (S. aureus GC 6335; [21]): 2 µg/mL (≈ 2.38 µM); MIC (S. aureus GC 6335; [22]): 64 µg/mL (≈ 76.2 µM); MIC (E. coli GC 2270; [23]): 1 µg/mL (≈ 1.19 µM); MIC (E. coli GC 2270; [24]): > 64 µg/mL; MIC (E. coli GC 2233; [25]): 1 µg/mL (≈ 1.19 µM); MIC (E. coli GC 2233; [26]): > 64 µg/mL; MIC (P. aeruginosa GC 2214; [27]): > 64 µg/mL; MIC (P. aeruginosa GC 2214; [28]): > 64 µg/mL; MIC (E. faecium GC 2243; [29]): 0.5 µg/mL (≈ 0.595 µM); MIC (E. faecium GC 2243; [30]): 8 µg/mL (≈ 9.52 µM); MIC (E. faecalis GC 2267; [31]): 2 µg/mL (≈ 2.38 µM); MIC (E. faecalis GC 2267; [32]): 64 µg/mL (≈ 76.2 µM); MIC (E. faecalis GC 2265; [33]): 1 µg/mL (≈ 1.19 µM); MIC (E. faecalis GC 2265; [34]): 64 µg/mL (≈ 76.2 µM); MIC (E. coli GC 2203; [35]): 0.5 µg/mL (≈ 0.595 µM); MIC (E. coli GC 2203; [36]): > 64 µg/mL; MIC (E. coli GC 6465; [37]): 4 µg/mL (≈ 4.76 µM); MIC (E. coli GC 6465; [38]): > 64 µg/mL |
